Experimental data: paper PMC12231361, “KETAMIR-2, a new molecular entity and novel ketamine analog” (Frontiers in Pharmacology, 2025)
pIC50: −log10 of the molar value.

Target: T1, PCP site on NMDA receptor
T1 construct: gene Grin1; PCP (channel pore) site of the NMDA receptor complex
Assay: PCP-site binding assay
Settings: read-out: PCP site / IC50/Ki
From the text: PCP-site binding assay on PCP site on NMDA receptor

| Compound | pIC50 |
| --- | --- |
| Nor-Ketamir | ~3.33 |
| CNC1(c2ccccc2Cl)CCCC1=O (centres unmarked) [Ketamir-2, 1-(2-chlorophenyl)-N-methyl-2-oxocyclopentan-1-aminium] | ~4.00 |
